The results in this text go back to US20090270259A1, “Novel Agrochemical Formulations” (priority 2005, published 2009).

This series in a line: Determination of the active substance content inside the film (UV-vis in THF, with and without ethanol wash). The series is classed as physicochemical. The conditions noted are these: Ecoflex film of Example 1, washed in 15 ml ethanol, UV-vis intensity ratio at 244 nm and 290 nm. The method, then: For applications for the controlled release of active substance, it is useful to determine the active substance content enclosed in the film more specifically.
For this, 27.3 mg of a film charged with chlorpyrifos and prepared by the procedure described above were dissolved in 15 ml of tetrahydrofuran (THF), which is a good solvent both for the active substance and also for the polymer. 0.5 milliliters of this solution were further diluted to a volume of 20 ml with THF; a UV-vis spectrum was recorded for the dilute solution.
In a comparison experiment, the film was firstly washed in 15 ml of ethanol and dried before being analyzed as described above in a solution of THF by means of UV-vis spectroscopy.
Reference spectra were measured a series of THF solutions which, as well as 33.5 mg/l of Ecoflex® comprising Ecoflex® pellets, also comprised chlorpyrifos in concentrations of from 0 to 24 mg/l. A suitable comparison parameter which clearly reflects the chlorpyrifos content is the intensity ratio I2/I1 of characteristic peaks in the UV-vis spectrum at the wavelengths 244 nm and 290 nm.

On to `CCOP(=S)(OCC)Oc1nc(Cl)c(Cl)cc1Cl` [chlorpyrifos], for which the “active substance washed away with ethanol (fraction on the film surface, directly available)” value was 76%. The “chlorpyrifos used in the film preparation that remains in the film after washing with ethanol (enclosed fraction, released in a delayed manner)” value (dried, dissolved in THF) is 24%.
